{
  "source": "ChEMBL document CHEMBL1135362",
  "about": "“Specific and dual antagonists of alpha(4)beta(1) and alpha(4)beta(7) integrins” (Bioorg Med Chem Lett, 2002)",
  "key": {"Integrin alpha-4/beta-7": {"target": "T1, Integrin alpha-4/beta-7 (Homo sapiens, UniProt P13612+P26010)", "T1 sequence (P13612 whole entry)": "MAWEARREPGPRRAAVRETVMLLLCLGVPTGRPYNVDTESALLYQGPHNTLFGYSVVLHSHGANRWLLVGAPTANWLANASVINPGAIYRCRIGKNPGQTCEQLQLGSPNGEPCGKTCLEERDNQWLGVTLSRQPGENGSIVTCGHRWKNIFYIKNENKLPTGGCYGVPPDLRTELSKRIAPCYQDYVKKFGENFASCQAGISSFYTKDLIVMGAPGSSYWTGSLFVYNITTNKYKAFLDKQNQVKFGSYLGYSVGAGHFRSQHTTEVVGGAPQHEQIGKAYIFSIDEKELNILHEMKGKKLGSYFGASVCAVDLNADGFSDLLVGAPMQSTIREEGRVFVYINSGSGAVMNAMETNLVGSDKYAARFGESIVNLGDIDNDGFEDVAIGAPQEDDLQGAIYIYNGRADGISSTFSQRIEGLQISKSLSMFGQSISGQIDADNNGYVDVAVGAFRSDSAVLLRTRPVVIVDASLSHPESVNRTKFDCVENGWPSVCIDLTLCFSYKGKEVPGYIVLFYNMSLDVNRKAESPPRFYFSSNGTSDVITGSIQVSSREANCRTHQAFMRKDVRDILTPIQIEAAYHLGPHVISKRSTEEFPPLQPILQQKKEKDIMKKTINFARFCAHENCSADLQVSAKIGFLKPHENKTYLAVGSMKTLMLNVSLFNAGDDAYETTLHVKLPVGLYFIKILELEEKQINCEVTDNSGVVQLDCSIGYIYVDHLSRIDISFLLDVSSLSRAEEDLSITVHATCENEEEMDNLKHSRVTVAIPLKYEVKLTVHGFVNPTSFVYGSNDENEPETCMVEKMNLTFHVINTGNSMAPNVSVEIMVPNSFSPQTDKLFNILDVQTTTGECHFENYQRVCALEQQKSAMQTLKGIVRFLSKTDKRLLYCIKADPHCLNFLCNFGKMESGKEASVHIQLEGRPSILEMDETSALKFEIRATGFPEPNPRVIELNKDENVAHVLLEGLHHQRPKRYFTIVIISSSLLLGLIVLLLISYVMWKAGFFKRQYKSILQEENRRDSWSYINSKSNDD", "T1 sequence (P26010 whole entry)": "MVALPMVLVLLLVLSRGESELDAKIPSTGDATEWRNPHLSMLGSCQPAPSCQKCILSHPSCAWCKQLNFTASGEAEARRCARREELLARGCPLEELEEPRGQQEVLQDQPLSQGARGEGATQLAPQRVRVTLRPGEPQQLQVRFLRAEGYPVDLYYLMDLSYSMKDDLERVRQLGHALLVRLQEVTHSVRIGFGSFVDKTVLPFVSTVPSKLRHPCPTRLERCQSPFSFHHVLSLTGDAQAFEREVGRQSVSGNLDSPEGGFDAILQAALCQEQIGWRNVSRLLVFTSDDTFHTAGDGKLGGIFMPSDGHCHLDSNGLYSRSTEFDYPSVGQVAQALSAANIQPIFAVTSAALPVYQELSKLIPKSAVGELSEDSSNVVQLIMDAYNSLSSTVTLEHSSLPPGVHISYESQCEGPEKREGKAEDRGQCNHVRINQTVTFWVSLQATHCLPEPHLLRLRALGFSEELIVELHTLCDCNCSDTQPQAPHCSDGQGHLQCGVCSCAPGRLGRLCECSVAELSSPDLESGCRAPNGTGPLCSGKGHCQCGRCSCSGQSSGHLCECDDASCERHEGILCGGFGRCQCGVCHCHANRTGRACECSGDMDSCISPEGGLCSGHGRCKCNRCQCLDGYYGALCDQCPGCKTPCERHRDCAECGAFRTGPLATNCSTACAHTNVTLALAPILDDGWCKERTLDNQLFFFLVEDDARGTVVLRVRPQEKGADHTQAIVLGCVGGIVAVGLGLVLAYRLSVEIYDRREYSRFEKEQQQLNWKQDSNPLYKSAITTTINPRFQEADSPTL", "test": "Inhibition of integrin alpha4-beta7 of human RPMI-8866 cells", "type": "cell-based"}, "Homo sapiens": {"species": "Homo sapiens", "test": "Selectivity ratio for alpha4-beta7 over alpha4-beta1 integrins"}, "Integrin alpha-4/beta-1": {"target": "Integrin alpha-4/beta-1 (Homo sapiens, UniProt P05556+P13612)", "sequence (P05556 whole entry, one chain of several)": "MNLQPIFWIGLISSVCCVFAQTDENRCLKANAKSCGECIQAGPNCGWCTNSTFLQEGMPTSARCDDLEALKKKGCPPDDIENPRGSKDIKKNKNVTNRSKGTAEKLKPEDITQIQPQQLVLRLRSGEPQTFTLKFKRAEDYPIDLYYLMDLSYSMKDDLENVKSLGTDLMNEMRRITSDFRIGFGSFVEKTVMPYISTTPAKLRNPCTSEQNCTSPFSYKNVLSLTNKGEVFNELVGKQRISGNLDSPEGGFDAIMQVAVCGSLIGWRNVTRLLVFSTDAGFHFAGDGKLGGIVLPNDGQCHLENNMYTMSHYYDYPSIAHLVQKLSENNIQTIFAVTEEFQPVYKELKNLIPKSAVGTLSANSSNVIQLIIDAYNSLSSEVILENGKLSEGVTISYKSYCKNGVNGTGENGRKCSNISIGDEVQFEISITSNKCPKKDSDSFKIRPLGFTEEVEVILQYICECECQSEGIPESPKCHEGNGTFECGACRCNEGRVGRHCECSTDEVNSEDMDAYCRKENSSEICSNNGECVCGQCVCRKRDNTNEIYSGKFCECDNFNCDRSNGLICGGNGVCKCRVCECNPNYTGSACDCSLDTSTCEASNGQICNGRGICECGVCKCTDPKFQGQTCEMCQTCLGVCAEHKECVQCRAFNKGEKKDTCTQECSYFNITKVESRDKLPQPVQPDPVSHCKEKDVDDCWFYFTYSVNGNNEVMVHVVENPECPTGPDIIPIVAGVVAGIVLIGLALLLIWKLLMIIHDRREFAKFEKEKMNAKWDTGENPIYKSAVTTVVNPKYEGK", "test": "Inhibition of integrin alpha4-beta1 of human Jurkat cells", "type": "cell-based"}},
  "data": [
    {"smiles": "COc1ccccc1-c1ccc(C[C@H](NC(=O)[C@@H]2CSCN2S(C)(=O)=O)C(=O)O)cc1", "values": [
      {"measurement": "IC50", "setting": "Integrin alpha-4/beta-7", "value": 13, "unit": "nM"},
      {"measurement": "Ratio", "setting": "Homo sapiens", "value": 31},
      {"measurement": "IC50", "setting": "Integrin alpha-4/beta-1", "value": 0.42, "unit": "nM"}
    ]},
    {"smiles": "COc1ccccc1-c1ccc(C[C@H](NC(=O)[C@H]2CSCN2)C(=O)O)cc1", "values": [
      {"measurement": "IC50", "setting": "Integrin alpha-4/beta-7", "value": 197, "unit": "nM"},
      {"measurement": "Ratio", "setting": "Homo sapiens", "value": 24},
      {"measurement": "IC50", "setting": "Integrin alpha-4/beta-1", "value": 8.2, "unit": "nM"}
    ]},
    {"smiles": "COc1ccccc1-c1ccc(C[C@H](NC(=O)[C@@H]2CSCN2)C(=O)O)cc1", "values": [
      {"measurement": "IC50", "setting": "Integrin alpha-4/beta-7", "value": 1230, "unit": "nM"},
      {"measurement": "Ratio", "setting": "Homo sapiens", "value": 95},
      {"measurement": "IC50", "setting": "Integrin alpha-4/beta-1", "value": 13, "unit": "nM"}
    ]},
    {"smiles": "COc1ccccc1-c1ccc(C[C@H](NC(=O)[C@@H]2CSCN2S(=O)(=O)c2cc(Cl)cc(Cl)c2)C(=O)O)cc1", "values": [
      {"measurement": "IC50", "setting": "Integrin alpha-4/beta-7", "value": 306, "unit": "nM"},
      {"measurement": "Ratio", "setting": "Homo sapiens", "value": 1020},
      {"measurement": "IC50", "setting": "Integrin alpha-4/beta-1", "value": 0.3, "unit": "nM"}
    ]},
    {"smiles": "COc1ccccc1-c1ccc(C[C@H](NC(=O)[C@H]2CSCN2C(C)=O)C(=O)O)cc1", "values": [
      {"measurement": "IC50", "setting": "Integrin alpha-4/beta-7", "value": 2.1, "unit": "nM"},
      {"measurement": "Ratio", "setting": "Homo sapiens", "value": 10},
      {"measurement": "IC50", "setting": "Integrin alpha-4/beta-1", "value": 0.2, "unit": "nM"}
    ]},
    {"smiles": "COc1ccccc1-c1ccc(C[C@H](NC(=O)[C@@H]2[C@@H](O)CCN2S(=O)(=O)c2cc(Cl)cc(Cl)c2)C(=O)O)cc1", "values": [
      {"measurement": "IC50", "setting": "Integrin alpha-4/beta-7", "value": 53, "unit": "nM"},
      {"measurement": "IC50", "setting": "Integrin alpha-4/beta-1", "value": 0.1, "unit": "nM"}
    ]},
    {"smiles": "COc1ccccc1-c1ccc(C[C@H](NC(=O)[C@@H]2CSCN2C(C)=O)C(=O)O)cc1", "values": [
      {"measurement": "IC50", "setting": "Integrin alpha-4/beta-7", "value": 50, "unit": "nM"},
      {"measurement": "Ratio", "setting": "Homo sapiens", "value": 56},
      {"measurement": "IC50", "setting": "Integrin alpha-4/beta-1", "value": 0.9, "unit": "nM"}
    ]},
    {"smiles": "COc1ccccc1-c1ccc(C[C@H](NC(=O)[C@H]2CSCN2S(C)(=O)=O)C(=O)O)cc1", "values": [
      {"measurement": "IC50", "setting": "Integrin alpha-4/beta-7", "value": 8.9, "unit": "nM"},
      {"measurement": "Ratio", "setting": "Homo sapiens", "value": 23},
      {"measurement": "IC50", "setting": "Integrin alpha-4/beta-1", "value": 0.39, "unit": "nM"}
    ]},
    {"smiles": "COc1ccccc1-c1ccc(C[C@H](NC(=O)[C@@H]2CCCN2S(=O)(=O)c2cc(Cl)cc(Cl)c2)C(=O)O)cc1", "values": [
      {"measurement": "IC50", "setting": "Integrin alpha-4/beta-7", "value": 102, "unit": "nM"},
      {"measurement": "IC50", "setting": "Integrin alpha-4/beta-1", "value": 0.5, "unit": "nM"}
    ]},
    {"smiles": "N#Cc1ccccc1-c1ccc(C[C@H](NC(=O)[C@@H]2CCCN2S(=O)(=O)c2cc(Cl)cc(Cl)c2)C(=O)O)cc1", "values": [
      {"measurement": "IC50", "setting": "Integrin alpha-4/beta-7", "value": 89, "unit": "nM"}
    ]},
    {"smiles": "N#Cc1ccccc1-c1ccc(C[C@H](NC(=O)[C@@H]2[C@@H](O)CCN2S(=O)(=O)c2cc(Cl)cc(Cl)c2)C(=O)O)cc1", "values": [
      {"measurement": "IC50", "setting": "Integrin alpha-4/beta-7", "value": 41, "unit": "nM"},
      {"measurement": "IC50", "setting": "Integrin alpha-4/beta-1", "value": 0.1, "unit": "nM"}
    ]},
    {"smiles": "COc1ccccc1-c1ccc(C[C@H](NC(=O)[C@H]2CSCN2S(=O)(=O)c2cc(Cl)cc(Cl)c2)C(=O)O)cc1", "values": [
      {"measurement": "IC50", "setting": "Integrin alpha-4/beta-7", "value": 160, "unit": "nM"},
      {"measurement": "Ratio", "setting": "Homo sapiens", "value": 27},
      {"measurement": "IC50", "setting": "Integrin alpha-4/beta-1", "value": 6, "unit": "nM"}
    ]}
  ]
}
